In PMC3371641 (SAR and QSAR in Environmental Research, 2011):
Where two headings read alike, the source gives them in different places.

Molecular target: T1, cytochrome P450 enzyme 1A2 (CYP1A2) (Homo sapiens, UniProt P05177)
T1 sequence (P05177 2-516): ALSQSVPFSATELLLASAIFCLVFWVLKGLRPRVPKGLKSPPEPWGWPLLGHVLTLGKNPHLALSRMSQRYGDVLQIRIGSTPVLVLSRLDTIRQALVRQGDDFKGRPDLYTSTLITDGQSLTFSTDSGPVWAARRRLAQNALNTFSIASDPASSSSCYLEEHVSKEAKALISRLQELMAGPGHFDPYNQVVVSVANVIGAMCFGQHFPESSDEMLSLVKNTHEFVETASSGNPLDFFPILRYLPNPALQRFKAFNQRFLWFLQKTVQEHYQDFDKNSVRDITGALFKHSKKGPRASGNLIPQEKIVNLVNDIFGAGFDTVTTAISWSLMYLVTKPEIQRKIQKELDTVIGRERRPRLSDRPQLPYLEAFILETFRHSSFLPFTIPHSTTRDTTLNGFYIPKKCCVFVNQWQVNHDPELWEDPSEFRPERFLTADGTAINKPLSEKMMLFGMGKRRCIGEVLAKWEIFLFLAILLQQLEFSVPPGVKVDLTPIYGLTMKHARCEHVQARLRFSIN
Test: enzyme inhibition assay, method reported earlier
Format: biochemical

SMILES: CC#Cc1ccc2c(ccc3ccccc32)c1 [2MEPHEN, 2-(1-propynyl)phenanthrene]
- IC50: 600 nM

SMILES: C#CCOc1ccc(-c2ccccc2)cc1 [4BIPHPE, 4-biphenylpropargyl ether]
- IC50: 1550 nM

SMILES: C#CCOCc1ccc(-c2ccccc2)cc1 [4BIPHMPE, 4-biphenyl methyl propargyl ether]
- IC50 (read-out: EI): 1840 nM

SMILES: C#CCOc1ccc2c(c1)OC(c1ccccc1)CC2=O (stereo not drawn) [7FLAVANONEPE, 7FlavanonePE]
- IC50: 970 nM

SMILES: C#CCOc1ccc2c(=O)cc(-c3ccccc3)oc2c1 [7FPE, 7-flavonepropargyl ether]
- IC50: 390 nM

SMILES: C#CCOc1ccc(-c2cc(=O)c3ccc4ccccc4c3o2)cc1 [4′αNFPE, α-naphthoflavone-4′-propargyl ether]
- IC50: 260 nM

SMILES: CCC#Cc1ccc2ccc3cccc4ccc1c2c34 [1EEP, 1-butynylpyrene]
- IC50: 430 nM

SMILES: C#CCOc1ccc2c(C)cc(=O)oc2c1 [4M7CPE, 4-methyl-7-coumarinpropargyl ether]
- IC50: 2010 nM

SMILES: C#CCOc1cccc2oc(-c3ccccc3)cc(=O)c12 [5FPE, 5-flavonepropargyl ether]
- IC50: 380 nM

SMILES: C#CCOc1ccc2c(C(F)(F)F)cc(=O)oc2c1 [4TFM7CPE, 4-(trifluoromethyl)-7-coumarinpropargyl ether]
- IC50: 700 nM

SMILES: C#CCOc1ccc2oc(-c3ccccc3)cc(=O)c2c1 [6FPE, 6-flavonepropargyl ether]
- IC50: 940 nM

SMILES: C#CCOc1ccc(-c2cc(=O)c3ccccc3o2)cc1 [4′FPE, 4′-flavonepropargyl ether]
- IC50: 1270 nM
